Each compound was assayed against T1, human PAH with the R408W mutation (Homo sapiens, UniProt P00439, R408W) (assay: Cell Based Phenylalanine Flux Assay). Conditions: A375 cells expressing human PAH R408W; 24 hrs compound incubation; 13C-Tyrosine by LC-MS; average where tested multiple times; read-out: AC50.
T1 construct: expressed in transfected cells
T1 sequence (P00439 1-452 R408W): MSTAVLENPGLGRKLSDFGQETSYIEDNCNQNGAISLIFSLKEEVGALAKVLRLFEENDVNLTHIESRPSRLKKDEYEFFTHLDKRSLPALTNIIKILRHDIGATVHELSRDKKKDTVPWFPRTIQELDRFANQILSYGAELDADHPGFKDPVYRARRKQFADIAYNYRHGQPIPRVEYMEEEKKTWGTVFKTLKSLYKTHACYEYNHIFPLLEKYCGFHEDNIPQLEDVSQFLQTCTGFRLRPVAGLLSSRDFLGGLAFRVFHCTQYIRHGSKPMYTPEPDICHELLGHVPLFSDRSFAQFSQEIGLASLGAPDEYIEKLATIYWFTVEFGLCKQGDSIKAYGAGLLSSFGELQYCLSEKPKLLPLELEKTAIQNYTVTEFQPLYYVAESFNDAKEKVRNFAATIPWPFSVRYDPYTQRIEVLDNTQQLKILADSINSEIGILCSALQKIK
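Also: after compound treatment, cells received sepiapterin plus isotope-labelled Phenylalanine for 4 hours, then labelled Tyrosine in the medium was quantified, 10-point 2-fold dilution series run in duplicate.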

Question: Which AC50 does the source give for `Cn1cc(-c2nnc(C(=O)N3CCc4[nH]cnc4[C@@H]3c3cc4c(Br)cccn4n3)o2)cn1` [Example 1869, (R)-(4-(4-bromopyrazolo[1,5-a]pyridin-2-yl)-1,4,6,7-tetrahydro-5H-imidazo[4,5-c]pyridin-5-yl)(5-(1-methyl-1H-pyrazol-4-yl)-1,3,4-oxadiazol-2-yl)methanone] here?
Answer: > 5000 nM

Question: With `FC(F)(F)c1cccn2nc([C@@H]3c4nc[nH]c4CCN3c3ccccn3)cc12` [Example 1870, (S)-5-(pyridin-2-yl)-4-(4-(trifluoromethyl)pyrazolo[1,5-a]pyridin-2-yl)-4,5,6,7-tetrahydro-1H-imidazo[4,5-c]pyridine] as the compound, how does the AC50 read?
Answer: < 500 nM

Question: How did the AC50 turn out when `FC(F)(F)c1cccn2nc([C@H]3c4nc[nH]c4CCN3c3ccccn3)cc12` [Example 1871, (R)-5-(pyridin-2-yl)-4-(4-(trifluoromethyl)pyrazolo[1,5-a]pyridin-2-yl)-4,5,6,7-tetrahydro-1H-imidazo[4,5-c]pyridine] was run?
Answer: > 5000 nM

Question: How did the AC50 turn out when `Nc1cnc(N2CCc3[nH]cnc3[C@@H]2c2cc3c(Cl)cccn3n2)nc1` [Example 1872, (R)-2-(4-(4-chloropyrazolo[1,5-a]pyridin-2-yl)-1,4,6,7-tetrahydro-5H-imidazo[4,5-c]pyridin-5-yl)pyrimidin-5-amine] was run?
Answer: > 5000 nM

Question: How did the AC50 turn out when `Nc1cnc(N2CCc3[nH]cnc3[C@H]2c2cc3c(Cl)cccn3n2)nc1` [Example 1873, (S)-2-(4-(4-chloropyrazolo[1,5-a]pyridin-2-yl)-1,4,6,7-tetrahydro-5H-imidazo[4,5-c]pyridin-5-yl)pyrimidin-5-amine] was run?
Answer: 500 to 1000 nM

Question: For `CCc1cccn2nc([C@H]3c4nc[nH]c4CCN3C(=O)c3nnc(C4CC4)o3)cc12` [Example 1874, (R)-(5-cyclopropyl-1,3,4-oxadiazol-2-yl)(4-(4-ethylpyrazolo[1,5-a]pyridin-2-yl)-1,4,6,7-tetrahydro-5H-imidazo[4,5-c]pyridin-5-yl)methanone], which AC50 is on record?
Answer: > 5000 nM

Question: How did the AC50 turn out when `CCc1cccn2nc([C@@H]3c4nc[nH]c4CCN3C(=O)c3nnc(C4CC4)o3)cc12` [Example 1875, (S)-(5-cyclopropyl-1,3,4-oxadiazol-2-yl)(4-(4-ethylpyrazolo[1,5-a]pyridin-2-yl)-1,4,6,7-tetrahydro-5H-imidazo[4,5-c]pyridin-5-yl)methanone] was run?
Answer: < 500 nM

Question: How did the AC50 turn out when `Cn1cc(-c2nnc(C(=O)N3CCc4[nH]cnc4[C@H]3c3cc4c(C5CC5)cccn4n3)o2)cn1` [Example 1876, (S)-(4-(4-cyclopropylpyrazolo[1,5-a]pyridin-2-yl)-1,4,6,7-tetrahydro-5H-imidazo[4,5-c]pyridin-5-yl)(5-(1-methyl-1H-pyrazol-4-yl)-1,3,4-oxadiazol-2-yl)methanone] was run?
Answer: 500 to 1000 nM

Question: `Cn1cc(-c2nnc(C(=O)N3CCc4[nH]cnc4[C@@H]3c3cc4c(C5CC5)cccn4n3)o2)cn1` [Example 1877, (R)-(4-(4-cyclopropylpyrazolo[1,5-a]pyridin-2-yl)-1,4,6,7-tetrahydro-5H-imidazo[4,5-c]pyridin-5-yl)(5-(1-methyl-1H-pyrazol-4-yl)-1,3,4-oxadiazol-2-yl)methanone] was tested. Which AC50 did it give?
Answer: > 5000 nM

Question: How did the AC50 turn out when `O=C(c1nnc(-c2cnn(C(F)F)c2)o1)N1CCc2[nH]cnc2[C@H]1c1cc2c(C3CC3)cccn2n1` [Example 1878, (S)-(4-(4-cyclopropylpyrazolo[1,5-a]pyridin-2-yl)-1,4,6,7-tetrahydro-5H-imidazo[4,5-c]pyridin-5-yl)(5-(1-(difluoromethyl)-1H-pyrazol-4-yl)-1,3,4-oxadiazol-2-yl)methanone] was run?
Answer: 500 to 1000 nM

Question: For `O=C(c1nnc(-c2ccn(C(F)(F)F)n2)o1)N1CCc2[nH]cnc2[C@H]1c1cc2c(C3CC3)cccn2n1` [Example 1880, (S)-(4-(4-cyclopropylpyrazolo[1,5-a]pyridin-2-yl)-1,4,6,7-tetrahydro-5H-imidazo[4,5-c]pyridin-5-yl)(5-(1-(trifluoromethyl)-1H-pyrazol-3-yl)-1,3,4-oxadiazol-2-yl)methanone], which AC50 is on record?
Answer: < 500 nM

Question: `O=C(c1nnc(-c2ccn(C(F)(F)F)n2)o1)N1CCc2[nH]cnc2[C@@H]1c1cc2c(C3CC3)cccn2n1` [Example 1881, (R)-(4-(4-cyclopropylpyrazolo[1,5-a]pyridin-2-yl)-1,4,6,7-tetrahydro-5H-imidazo[4,5-c]pyridin-5-yl)(5-(1-(trifluoromethyl)-1H-pyrazol-3-yl)-1,3,4-oxadiazol-2-yl)methanone] was tested. Which AC50 did it give?
Answer: > 5000 nM

Question: `CC(C)c1cccn2nc([C@@H]3c4nc[nH]c4CCN3C(=O)c3nnc(C4CC4)o3)cc12` [Example 1882, (S)-(5-cyclopropyl-1,3,4-oxadiazol-2-yl)(4-(4-isopropylpyrazolo[1,5-a]pyridin-2-yl)-1,4,6,7-tetrahydro-5H-imidazo[4,5-c]pyridin-5-yl)methanone] was tested. Which AC50 did it give?
Answer: < 500 nM

Question: `CC(C)c1cccn2nc([C@@H]3c4nc[nH]c4CCN3C(=O)c3nnc(C(C)(C)F)o3)cc12` [Example 1884, (S)-(5-(2-fluoropropan-2-yl)-1,3,4-oxadiazol-2-yl)(4-(4-isopropylpyrazolo[1,5-a]pyridin-2-yl)-1,4,6,7-tetrahydro-5H-imidazo[4,5-c]pyridin-5-yl)methanone] was tested. Which AC50 did it give?
Answer: < 500 nM

Question: With `CC(C)c1cccn2nc([C@H]3c4nc[nH]c4CCN3C(=O)c3nnc(C(C)(C)F)o3)cc12` [Example 1885, (R)-(5-(2-fluoropropan-2-yl)-1,3,4-oxadiazol-2-yl)(4-(4-isopropylpyrazolo[1,5-a]pyridin-2-yl)-1,4,6,7-tetrahydro-5H-imidazo[4,5-c]pyridin-5-yl)methanone] as the compound, how does the AC50 read?
Answer: > 5000 nM

Question: With `CC(C)c1cccn2nc([C@@H]3c4nc[nH]c4CCN3C(=O)c3nnc(-c4cnn(C)c4)o3)cc12` [Example 1886, (S)-(4-(4-isopropylpyrazolo[1,5-a]pyridin-2-yl)-1,4,6,7-tetrahydro-5H-imidazo[4,5-c]pyridin-5-yl)(5-(1-methyl-1H-pyrazol-4-yl)-1,3,4-oxadiazol-2-yl)methanone] as the compound, how does the AC50 read?
Answer: < 500 nM

Question: For `CC(C)c1cccn2nc([C@H]3c4nc[nH]c4CCN3C(=O)c3nnc(-c4cnn(C)c4)o3)cc12` [Example 1887, (R)-(4-(4-isopropylpyrazolo[1,5-a]pyridin-2-yl)-1,4,6,7-tetrahydro-5H-imidazo[4,5-c]pyridin-5-yl)(5-(1-methyl-1H-pyrazol-4-yl)-1,3,4-oxadiazol-2-yl)methanone], which AC50 is on record?
Answer: > 5000 nM

Question: Which AC50 does the source give for `Cn1ccc(-c2nnc(C(=O)N3CCc4[nH]cnc4[C@H]3c3cc4c(Br)cccn4n3)o2)n1` [Example 1889, (S)-(4-(4-bromopyrazolo[1,5-a]pyridin-2-yl)-1,4,6,7-tetrahydro-5H-imidazo[4,5-c]pyridin-5-yl)(5-(1-methyl-1H-pyrazol-3-yl)-1,3,4-oxadiazol-2-yl)methanone] here?
Answer: < 500 nM

Question: With `Cc1cccn2nc([C@@H]3c4nc[nH]c4CCN3c3nnc(-c4ccc(F)cc4)o3)cc12` [Example 1891, (S)-2-(4-fluorophenyl)-5-(4-(4-methylpyrazolo[1,5-a]pyridin-2-yl)-1,4,6,7-tetrahydro-5H-imidazo[4,5-c]pyridin-5-yl)-1,3,4-oxadiazole] as the compound, how does the AC50 read?
Answer: < 500 nM

Question: With `Fc1ccc(-c2nnc(N3CCc4[nH]cnc4[C@H]3c3cc4c(C(F)(F)F)cccn4n3)o2)cc1` [Example 1893, (S)-2-(4-fluorophenyl)-5-(4-(4-(trifluoromethyl)pyrazolo[1,5-a]pyridin-2-yl)-1,4,6,7-tetrahydro-5H-imidazo[4,5-c]pyridin-5-yl)-1,3,4-oxadiazole] as the compound, how does the AC50 read?
Answer: < 500 nM

Question: Which AC50 does the source give for `CCc1cccn2nc([C@H]3c4nc[nH]c4CCN3C(=O)c3nnc(-c4ccccn4)o3)cc12` [Example 1894, (R)-(4-(4-ethylpyrazolo[1,5-a]pyridin-2-yl)-1,4,6,7-tetrahydro-5H-imidazo[4,5-c]pyridin-5-yl)(5-(pyridin-2-yl)-1,3,4-oxadiazol-2-yl)methanone] here?
Answer: > 5000 nM

Question: How did the AC50 turn out when `O=C(c1nnc(-c2ccccn2)o1)N1CCc2[nH]cnc2[C@@H]1c1cc2c(C3CC3)cccn2n1` [Example 1896, (R)-(4-(4-cyclopropylpyrazolo[1,5-a]pyridin-2-yl)-1,4,6,7-tetrahydro-5H-imidazo[4,5-c]pyridin-5-yl)(5-(pyridin-2-yl)-1,3,4-oxadiazol-2-yl)methanone] was run?
Answer: > 5000 nM

Question: For `Cc1c(-c2nnc(C(=O)N3CCc4[nH]cnc4[C@H]3c3cc4c(C5CC5)cccn4n3)o2)cnn1C` [Example 1898, (S)-(4-(4-cyclopropylpyrazolo[1,5-a]pyridin-2-yl)-1,4,6,7-tetrahydro-5H-imidazo[4,5-c]pyridin-5-yl)(5-(1,5-dimethyl-1H-pyrazol-4-yl)-1,3,4-oxadiazol-2-yl)methanone], which AC50 is on record?
Answer: < 500 nM

Question: For `Cc1c(-c2nnc(C(=O)N3CCc4[nH]cnc4[C@@H]3c3cc4c(C5CC5)cccn4n3)o2)cnn1C` [Example 1899, (R)-(4-(4-cyclopropylpyrazolo[1,5-a]pyridin-2-yl)-1,4,6,7-tetrahydro-5H-imidazo[4,5-c]pyridin-5-yl)(5-(1,5-dimethyl-1H-pyrazol-4-yl)-1,3,4-oxadiazol-2-yl)methanone], which AC50 is on record?
Answer: 1000 to 5000 nM

Question: For `Cn1ccc(-c2nnc(C(=O)N3CCc4[nH]cnc4[C@H]3c3cc4c(C5CC5)cccn4n3)o2)n1` [Example 1900, (S)-(4-(4-cyclopropylpyrazolo[1,5-a]pyridin-2-yl)-1,4,6,7-tetrahydro-5H-imidazo[4,5-c]pyridin-5-yl)(5-(1-methyl-1H-pyrazol-3-yl)-1,3,4-oxadiazol-2-yl)methanone], which AC50 is on record?
Answer: < 500 nM

Question: With `CC(C)c1cccn2nc([C@@H]3c4nc[nH]c4CCN3C(=O)c3nnc(C(C)(C)C)o3)cc12` [Example 1902, (S)-(5-(tert-butyl)-1,3,4-oxadiazol-2-yl)(4-(4-isopropylpyrazolo[1,5-a]pyridin-2-yl)-1,4,6,7-tetrahydro-5H-imidazo[4,5-c]pyridin-5-yl)methanone] as the compound, how does the AC50 read?
Answer: < 500 nM
